# Measurements from patent US20250313532A1, “ALDH2 INHIBITORS AND METHODS OF USE THEREOF” (UNIVERSITY OF MARYLAND, BALTIMORE, priority 2022, published 2025).
# Like-named read-outs stand apart in the source and are kept apart here.
# What was measured:
# ALDH2 = target: T1, ALDH2 (Homo sapiens, UniProt P05091); assay: Fluorescence-based ALDH2 enzymatic inhibition assay (NADH fluorescence); assay type: biochemical; conditions: for IC50: ALDH2 50 nM, formaldehyde 300 μM, NAD+ 1.2 mM, pH 7.4, 25° C.; for fold more potent than hit CB-01 (ALDH2 IC50): relative to parent screening hit CB-01
# T1 construct: purchased Abcam 87415
# T1 sequence (P05091 18-517): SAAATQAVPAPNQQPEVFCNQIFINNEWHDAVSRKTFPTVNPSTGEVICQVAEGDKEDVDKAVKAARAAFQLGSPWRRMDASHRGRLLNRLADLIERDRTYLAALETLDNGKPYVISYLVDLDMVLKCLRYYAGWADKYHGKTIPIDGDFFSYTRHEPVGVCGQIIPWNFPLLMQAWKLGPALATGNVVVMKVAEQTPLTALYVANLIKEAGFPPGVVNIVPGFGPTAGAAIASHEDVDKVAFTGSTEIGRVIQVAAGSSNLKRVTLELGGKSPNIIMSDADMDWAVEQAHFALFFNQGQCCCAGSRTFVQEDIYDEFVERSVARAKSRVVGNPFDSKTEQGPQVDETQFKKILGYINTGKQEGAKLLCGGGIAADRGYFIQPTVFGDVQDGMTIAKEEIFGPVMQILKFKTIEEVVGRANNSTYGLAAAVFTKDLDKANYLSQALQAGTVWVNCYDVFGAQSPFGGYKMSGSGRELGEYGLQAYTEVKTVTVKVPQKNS
# Procedure: Fluorescence-based ALDH2 assay was used to test the potencies of new compounds.
# IC50 values of synthesized compounds is tested by an ALDH2 enzymatic assay obtained by modifying a published protocol, for example by Yang et al. This assay measures an inhibitor-caused fluorescence decrease of the NADH generated from the ALDH2 catalytic reaction. Inhibitor binding causes a decrease in the production of NADH that affects the ability of the enzyme to turnover its substrate aldehyde and decreased the production of carboxylic acid. The assay components include: ALDH2 (50 nM) (Abcam #87415), substrate formaldehyde (300 μM), NAD^+ (1.2 mM), and testing compound in phosphate buffer (50 mM, pH 7.4) with 0.01% Tween 20 at 25° C. The assay is performed in black 384-well plates (40 L total volume; Costar). […] The negative control contains the enzyme, substrate solution in phosphate buffer without the addition of the substrate formaldehyde. Measurements are performed 10 min after adding the testing compound by excitation of NAD^+ at 340 nm, which leads to fluorescence emission at 450 nm. The IC50 values of testing compounds is determined from experiments performed in a concentration-dependent manner of testing compounds by fitting the data to a sigmoidal dose-response equation in GraphPad Prism. All experiments are performed in triplicate.
# An HTS ALDH2 enzymatic assay is established and can be used to measure the inhibitory potency of compounds. […] The assay was used for temperature, pH value, and concentration of ALDH2 in the 384-well format; several independent test runs were performed to assess assay parameters.
# To determine the performance of the established ALDH2 activity assay under HTS conditions, a pilot screen of 980 compounds was performed. Compounds were tested in triplicate at concentrations ranging from 10 nM to 50 μM (0.1% DMSO). Raw assay data were analyzed using DataWarrior software. The IC50 value of each compound was calculated. “High Control” represents wells from the same plate containing ALDH2 (50 nM), formaldehyde (300 μM), and NAD^+ (1.2 mM) in phosphate buffer (50 mM, pH 7.4) with 0.01% Tween 20 at 25° C. and DMSO (0.1%) while “Low controls” correspond to the wells from the same plate containing ALDH2 (50 nM) treated with and NAD^+ (1.2 mM) in phosphate buffer (50 mM, pH 7.4) with 0.01% Tween 20 at 25° C. and DMSO (0.1%). […] Two values were subsequently calculated: 1) the average IC50 values of all the compounds tested in the screen, and 2) three times the standard deviation. The sum of these two values was used as the cutoff parameter.
# OATP1B1 = target: T2, OATP1B1 (Homo sapiens, UniProt Q9Y6L6); assay: OATP1B1-mediated uptake, OATP1B1-transfected vs wild-type HEK293 cells; assay type: in vitro ADME
# T2 construct: expressed in transfected cells; host or cells: HEK293
# T2 sequence (Q9Y6L6 1-691): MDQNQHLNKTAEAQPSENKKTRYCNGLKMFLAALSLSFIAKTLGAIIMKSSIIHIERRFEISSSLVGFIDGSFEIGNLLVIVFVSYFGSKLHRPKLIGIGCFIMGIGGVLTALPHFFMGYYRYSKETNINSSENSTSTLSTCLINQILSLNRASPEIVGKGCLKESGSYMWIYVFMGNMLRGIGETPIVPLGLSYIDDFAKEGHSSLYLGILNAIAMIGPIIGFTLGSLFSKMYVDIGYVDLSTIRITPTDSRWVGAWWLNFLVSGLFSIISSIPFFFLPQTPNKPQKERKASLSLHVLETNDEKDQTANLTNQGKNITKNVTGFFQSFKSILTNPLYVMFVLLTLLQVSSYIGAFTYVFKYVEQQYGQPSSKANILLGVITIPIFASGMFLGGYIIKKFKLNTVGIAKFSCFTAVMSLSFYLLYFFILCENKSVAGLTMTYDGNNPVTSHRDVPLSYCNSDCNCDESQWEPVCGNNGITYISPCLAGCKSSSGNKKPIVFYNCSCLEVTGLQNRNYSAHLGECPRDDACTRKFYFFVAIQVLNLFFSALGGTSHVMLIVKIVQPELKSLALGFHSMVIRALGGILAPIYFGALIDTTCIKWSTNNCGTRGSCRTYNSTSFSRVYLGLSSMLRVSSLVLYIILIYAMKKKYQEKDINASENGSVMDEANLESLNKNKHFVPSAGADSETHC
# Procedure: The uptake of inhibitor YA7068 by the liver-specific transporter OATP1B1 has been evaluated using a protocol similar to the one in a recent study on OCT transporters by Obianom et al. After incubating OATP1B1-transfected HEK293 cells with the compound, the intracellular concentrations of YA7068 was >2.5-fold higher than that after incubating the wild-type HEK293 cells with the compound (FIG. 3D). In sum, compound YA7068 is developed as a novel liver-targeting potent inhibitor of ALDH2.
# The OATP1-mediated uptake of synthesized compounds is assessed by an LC-MS-based method employing the OATP1B1- or OATP1B3-expressing HEK293 cells. Briefly, cells are washed twice with uptake buffer to remove floating cells. Compounds diluted in the uptake buffer are replaced in the wells and incubated for 10 min. For screening of compounds at a single concentration and one-time point, the cells are incubated with 100 μM of testing compounds. In each experiment, pitavastatin is used as a positive control. The incubation is stopped by removing the solution and adding […] of ice-cold uptake buffer. The cells are washed twice with the buffer. After washing, 200 μL of lysing solution (1:1 MeOH/H2O) containing internal standard is added. […] Aliquots of the supernatant are transferred to new tubes and drug concentration is quantified by LC-MS/MS. […]
# [1] = test system: primary human hepatocytes; assay: Cytotoxicity / cell viability in primary human hepatocytes (CCK-8); assay type: cell-based; conditions: concentration up to 200 uM, 24 h
# Procedure: Initial cell viability assays are performed on the YA7068 and new analogs on primary human hepatocytes (see letter from Prof. Hongbing Wang) using the commercially available CellTiter-Glo® 2.0 (Promega) as described by the manufacturer. […] These studies allow us to assess if the compounds are non-toxic for human liver cells.
# Cytotoxicity studies of YA7068 to primary human hepatocytes were performed.
# Human primary hepatocytes were maintained in DMEM medium with 10% fetal bovine serum (FBS) and 1% PS (penicillin/streptomycin). The cells were incubated in 37° C. incubator with 5% CO2. The number of viable cells was determined using the CCK-8 assay. Briefly, cells were seeded at a density of 5000 cells/well in 96-well plates, a nd were treated in triplicate with different concentrations of individual compounds (0, 0.1, 0.5, 1, 5, 10, 25, 50, 100, and 200 PM) for 24 h. Then, 10 μL of CCK-8 working solution was added to each well and incubated for appropriate times (0.5-4 h) before subjecting to a microplate reader for OD detection at 450 nm.
smiles,measurement,setting,value
"CS(=O)(=O)Nc1ccc(-c2cc3ccc(OCc4cccc(C(=O)O)c4)cc3oc2=O)cc1 [YA7068, 3-(((3-(4-(Methylsulfonamido)phenyl)-2-oxo-2H-chromen-7-yl)oxy)methyl)benzoic acid]",IC50,"ALDH2; read-out: IC50, inhibition of the enzymatic activity of ALDH2",62 nM
same,fold more potent than hit CB-01 (ALDH2 IC50),ALDH2,> 170 fold
same,"intracellular concentration, OATP1B1-transfected HEK293 cells vs wild-type HEK293 cells",OATP1B1; after incubating cells with the compound,> 2.5 fold
same,substrate for hepatocyte-specific OATP1B1,OATP1B1; result in words,functions as a substrate
same,cytotoxicity for primary human hepatocytes,[1],did not exhibit any cytotoxicity
"CS(=O)(=O)Nc1ccc(-c2cn3cc(C(=O)O)sc3n2)cc1 [YA7241, 6-(4-(Methylsulfonamido)phenyl)imidazo[2,1-b]thiazole-2-carboxylic acid]",IC50,"ALDH2; read-out: IC50, ALDH2 enzymatic assay",1900 nM
same,fold more potent than hit CB-01 (ALDH2 IC50),ALDH2,5.8 fold
